Measurements reported in patent US12370241B2, “Nasal powder formulation for treatment of hypoglycemia” (AMPHASTAR PHARMACEUTICALS, INC., priority 2015, dated 2025).
Like-named read-outs stand apart in the source and are kept apart here.

Key:
[1] = test system: patients with type 1 diabetes; assay: Phase III crossover study, intranasal vs IM glucagon after insulin-induced hypoglycemia (Example 9); type: in vivo, human; details: post-dosing
Experimental: A multiple center, randomized, two-way, crossover Phase III study in which patients with type 1 diabetes (T1D, n=75) were enrolled to evaluate the effectiveness and safety of a single dose of intranasally administered glucagon (the powder that is the subject of this invention) compared to glucagon administered by IM injection following insulin-induced hypoglycemia was conducted. The primary endpoint in this study was the proportion of patients who achieved an increase in blood glucose levels to ≥70 mg/dL within 30 minutes of treatment with glucagon or a […] increment in blood glucose within 30 minutes of treatment with glucagon. The protocol used insulin to reduce blood glucose levels to the hypoglycemic range (target nadir of <50 mg/dL).

[2] = test system: children with type 1 diabetes with induced hypoglycemia; details: injected (SC) (Stenninger 1993); cited from earlier work
[3] = test system: adults with hypoglycemia; details: cited from earlier work
[4] = water; cited from earlier work

Substance | Time by which blood glucose increased to within the normal range in most subjects [1] | Time for which plasma glucose levels continued to rise [2] | Time for which glucose levels continued to increase after administration ([3]; adults with hypoglycemia, injected (Hvidberg 1994; Rosenfalck 1992)) | Time after dosing at which glucose levels reach a plateau ([3]; adults with type 1 diabetes and insulin-induced hypoglycemia, injected (Rosenfalck 1992)) | Time for which glucose levels continued to increase after administration ([3]; healthy adults with insulin induced hypoglycemia, injected (Hvidberg 1994)) | Aqueous solubility [4]
glucagon [injected glucagon] | about 15 minutes | at least 45 minutes | at least 90 minutes | at least 90 minutes | at least 90 minutes | –
hydroxylpropyl-β-CD [HP-β-CD] | – | – | – | – | – | higher aqueous solubility than α-CD
